Experiments:
Format in all cases: functional, organism-based
Bile salt export pump [1] = molecular target: T1, Bile salt export pump (Rattus norvegicus, UniProt O70127); assay: (§1) TP_TRANSPORTER: Western in vivo, liver of Wistar rat
T1 sequence (O70127 whole entry): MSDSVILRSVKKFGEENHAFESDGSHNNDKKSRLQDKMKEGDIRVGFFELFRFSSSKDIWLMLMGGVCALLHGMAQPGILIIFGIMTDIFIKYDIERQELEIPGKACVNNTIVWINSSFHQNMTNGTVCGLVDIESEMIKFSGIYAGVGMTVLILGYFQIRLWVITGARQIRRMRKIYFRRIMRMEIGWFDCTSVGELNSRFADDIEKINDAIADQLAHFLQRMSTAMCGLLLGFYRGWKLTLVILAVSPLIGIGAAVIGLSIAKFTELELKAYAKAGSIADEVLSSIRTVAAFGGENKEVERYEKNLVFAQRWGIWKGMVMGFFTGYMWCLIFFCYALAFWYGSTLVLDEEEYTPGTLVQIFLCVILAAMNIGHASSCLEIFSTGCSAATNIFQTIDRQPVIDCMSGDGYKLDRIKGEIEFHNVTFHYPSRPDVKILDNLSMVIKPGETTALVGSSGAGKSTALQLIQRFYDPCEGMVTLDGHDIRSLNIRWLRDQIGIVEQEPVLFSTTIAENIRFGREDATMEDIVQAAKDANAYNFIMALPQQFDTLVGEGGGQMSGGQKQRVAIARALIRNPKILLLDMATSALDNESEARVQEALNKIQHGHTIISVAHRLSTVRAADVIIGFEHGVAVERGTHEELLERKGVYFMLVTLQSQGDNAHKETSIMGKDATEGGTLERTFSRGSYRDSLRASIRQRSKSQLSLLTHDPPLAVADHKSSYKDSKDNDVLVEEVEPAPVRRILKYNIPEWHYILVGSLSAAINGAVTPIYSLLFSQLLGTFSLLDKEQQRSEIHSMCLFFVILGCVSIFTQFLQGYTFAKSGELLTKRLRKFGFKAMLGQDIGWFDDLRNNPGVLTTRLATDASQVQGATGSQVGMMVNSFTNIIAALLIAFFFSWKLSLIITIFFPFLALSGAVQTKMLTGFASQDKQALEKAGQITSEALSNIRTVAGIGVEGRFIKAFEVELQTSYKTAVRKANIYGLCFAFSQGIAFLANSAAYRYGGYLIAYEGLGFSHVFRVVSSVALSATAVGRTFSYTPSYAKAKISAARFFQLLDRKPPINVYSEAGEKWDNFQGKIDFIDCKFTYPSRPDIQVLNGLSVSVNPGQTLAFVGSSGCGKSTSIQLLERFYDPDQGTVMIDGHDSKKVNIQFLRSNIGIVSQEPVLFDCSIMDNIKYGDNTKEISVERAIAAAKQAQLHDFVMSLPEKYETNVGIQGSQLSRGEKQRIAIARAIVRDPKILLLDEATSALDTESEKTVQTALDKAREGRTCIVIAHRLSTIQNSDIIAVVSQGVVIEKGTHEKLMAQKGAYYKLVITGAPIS

[2] = molecular target: T2, Multidrug resistance-associated protein 1 (Rattus norvegicus, UniProt Q8CG09); assay: as §1
[3] = molecular target: T3, ATP-binding cassette sub-family C member 2 (Rattus norvegicus, UniProt Q63120); assay: as §1
[4] = molecular target: Multidrug resistance protein 1a (Rattus norvegicus) (UniProt Q6PSM0); assay: as §1
[5] = molecular target: ATP-dependent translocase ABCB1 (Rattus norvegicus, UniProt P43245); assay: (§2) TP_TRANSPORTER: RT-PCR in vivo, liver of Wistar rat
Bile salt export pump [6] = molecular target: T1, Bile salt export pump; assay: as §2
[7] = molecular target: T2, Multidrug resistance-associated protein 1; assay: as §2
[8] = molecular target: T3, ATP-binding cassette sub-family C member 2; assay: as §2

T3 sequence (Q63120 whole entry): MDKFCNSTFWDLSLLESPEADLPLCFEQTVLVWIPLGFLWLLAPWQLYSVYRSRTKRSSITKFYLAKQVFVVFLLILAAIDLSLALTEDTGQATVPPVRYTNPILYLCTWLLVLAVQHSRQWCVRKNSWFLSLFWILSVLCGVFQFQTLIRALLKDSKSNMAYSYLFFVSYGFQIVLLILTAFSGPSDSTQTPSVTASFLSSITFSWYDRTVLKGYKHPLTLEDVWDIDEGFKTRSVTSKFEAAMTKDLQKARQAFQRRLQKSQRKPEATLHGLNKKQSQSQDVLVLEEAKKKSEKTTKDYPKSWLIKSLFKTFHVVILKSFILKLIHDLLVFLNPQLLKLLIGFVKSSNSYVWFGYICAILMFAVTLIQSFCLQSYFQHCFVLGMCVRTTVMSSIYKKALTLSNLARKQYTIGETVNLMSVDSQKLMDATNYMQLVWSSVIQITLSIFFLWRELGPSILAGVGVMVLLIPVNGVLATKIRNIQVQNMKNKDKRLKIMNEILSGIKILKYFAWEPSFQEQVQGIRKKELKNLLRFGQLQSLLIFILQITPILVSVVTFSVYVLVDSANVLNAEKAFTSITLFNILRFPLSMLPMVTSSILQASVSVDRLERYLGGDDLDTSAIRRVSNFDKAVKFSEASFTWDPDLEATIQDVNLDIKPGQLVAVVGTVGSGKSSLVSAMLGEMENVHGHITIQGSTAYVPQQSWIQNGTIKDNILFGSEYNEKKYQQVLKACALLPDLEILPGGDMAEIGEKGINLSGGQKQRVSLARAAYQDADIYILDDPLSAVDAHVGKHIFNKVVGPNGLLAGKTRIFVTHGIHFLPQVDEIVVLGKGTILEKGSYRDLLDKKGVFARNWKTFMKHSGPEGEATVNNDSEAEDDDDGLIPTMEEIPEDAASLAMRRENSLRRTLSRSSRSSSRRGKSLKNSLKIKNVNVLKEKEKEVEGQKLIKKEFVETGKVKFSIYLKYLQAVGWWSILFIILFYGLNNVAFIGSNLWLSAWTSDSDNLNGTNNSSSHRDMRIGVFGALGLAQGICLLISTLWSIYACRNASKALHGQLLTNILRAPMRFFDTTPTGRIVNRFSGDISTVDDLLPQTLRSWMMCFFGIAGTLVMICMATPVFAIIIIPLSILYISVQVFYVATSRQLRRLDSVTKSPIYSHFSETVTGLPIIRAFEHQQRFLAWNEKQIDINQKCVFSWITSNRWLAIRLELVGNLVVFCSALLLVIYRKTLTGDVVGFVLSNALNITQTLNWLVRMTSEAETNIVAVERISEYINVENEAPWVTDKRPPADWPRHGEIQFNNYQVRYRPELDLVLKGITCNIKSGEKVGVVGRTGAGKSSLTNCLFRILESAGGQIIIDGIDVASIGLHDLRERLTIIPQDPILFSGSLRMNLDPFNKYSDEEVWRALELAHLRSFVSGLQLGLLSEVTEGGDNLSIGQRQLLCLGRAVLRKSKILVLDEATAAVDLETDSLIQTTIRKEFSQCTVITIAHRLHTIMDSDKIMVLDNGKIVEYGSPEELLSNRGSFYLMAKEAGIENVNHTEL
T2 sequence (Q8CG09 whole entry): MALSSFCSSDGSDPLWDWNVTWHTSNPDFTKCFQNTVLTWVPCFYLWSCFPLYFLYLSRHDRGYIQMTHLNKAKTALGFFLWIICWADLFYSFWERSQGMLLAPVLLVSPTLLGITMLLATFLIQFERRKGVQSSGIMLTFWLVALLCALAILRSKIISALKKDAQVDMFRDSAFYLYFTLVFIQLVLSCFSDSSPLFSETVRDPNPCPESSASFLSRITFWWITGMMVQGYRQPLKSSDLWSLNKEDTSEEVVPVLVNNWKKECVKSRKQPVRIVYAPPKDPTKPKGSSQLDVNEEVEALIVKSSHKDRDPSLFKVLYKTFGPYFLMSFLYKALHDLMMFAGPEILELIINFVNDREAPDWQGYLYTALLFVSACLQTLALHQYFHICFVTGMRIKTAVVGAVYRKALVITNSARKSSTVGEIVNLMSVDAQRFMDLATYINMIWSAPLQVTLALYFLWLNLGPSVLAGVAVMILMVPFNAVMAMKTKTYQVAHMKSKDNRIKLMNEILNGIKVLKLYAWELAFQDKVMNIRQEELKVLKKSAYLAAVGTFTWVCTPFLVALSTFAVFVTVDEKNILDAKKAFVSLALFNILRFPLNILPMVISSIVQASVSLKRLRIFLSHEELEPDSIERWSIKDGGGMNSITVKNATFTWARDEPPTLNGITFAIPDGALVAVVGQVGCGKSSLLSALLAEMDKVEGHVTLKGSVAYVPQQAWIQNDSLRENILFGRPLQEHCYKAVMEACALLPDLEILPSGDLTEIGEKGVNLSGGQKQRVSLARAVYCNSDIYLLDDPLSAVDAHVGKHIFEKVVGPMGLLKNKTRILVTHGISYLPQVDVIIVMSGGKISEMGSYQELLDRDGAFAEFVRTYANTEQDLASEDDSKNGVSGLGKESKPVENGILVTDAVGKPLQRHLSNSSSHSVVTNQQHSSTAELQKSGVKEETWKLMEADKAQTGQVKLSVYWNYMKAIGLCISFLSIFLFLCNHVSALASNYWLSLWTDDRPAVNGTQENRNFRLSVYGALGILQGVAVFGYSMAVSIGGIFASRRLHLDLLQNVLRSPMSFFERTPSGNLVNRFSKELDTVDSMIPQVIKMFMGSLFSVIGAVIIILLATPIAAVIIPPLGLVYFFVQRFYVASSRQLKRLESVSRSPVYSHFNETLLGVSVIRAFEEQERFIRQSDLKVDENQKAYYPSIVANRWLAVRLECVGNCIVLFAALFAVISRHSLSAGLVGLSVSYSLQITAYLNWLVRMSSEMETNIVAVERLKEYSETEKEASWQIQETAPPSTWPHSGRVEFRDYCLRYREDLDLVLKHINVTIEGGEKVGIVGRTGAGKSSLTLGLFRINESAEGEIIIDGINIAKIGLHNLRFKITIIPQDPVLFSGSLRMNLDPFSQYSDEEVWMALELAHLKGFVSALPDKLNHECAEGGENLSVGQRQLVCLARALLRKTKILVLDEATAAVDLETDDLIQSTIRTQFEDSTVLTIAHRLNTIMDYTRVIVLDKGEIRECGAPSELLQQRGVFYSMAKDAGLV
Sequence of ATP-dependent translocase ABCB1 (P43245 whole entry): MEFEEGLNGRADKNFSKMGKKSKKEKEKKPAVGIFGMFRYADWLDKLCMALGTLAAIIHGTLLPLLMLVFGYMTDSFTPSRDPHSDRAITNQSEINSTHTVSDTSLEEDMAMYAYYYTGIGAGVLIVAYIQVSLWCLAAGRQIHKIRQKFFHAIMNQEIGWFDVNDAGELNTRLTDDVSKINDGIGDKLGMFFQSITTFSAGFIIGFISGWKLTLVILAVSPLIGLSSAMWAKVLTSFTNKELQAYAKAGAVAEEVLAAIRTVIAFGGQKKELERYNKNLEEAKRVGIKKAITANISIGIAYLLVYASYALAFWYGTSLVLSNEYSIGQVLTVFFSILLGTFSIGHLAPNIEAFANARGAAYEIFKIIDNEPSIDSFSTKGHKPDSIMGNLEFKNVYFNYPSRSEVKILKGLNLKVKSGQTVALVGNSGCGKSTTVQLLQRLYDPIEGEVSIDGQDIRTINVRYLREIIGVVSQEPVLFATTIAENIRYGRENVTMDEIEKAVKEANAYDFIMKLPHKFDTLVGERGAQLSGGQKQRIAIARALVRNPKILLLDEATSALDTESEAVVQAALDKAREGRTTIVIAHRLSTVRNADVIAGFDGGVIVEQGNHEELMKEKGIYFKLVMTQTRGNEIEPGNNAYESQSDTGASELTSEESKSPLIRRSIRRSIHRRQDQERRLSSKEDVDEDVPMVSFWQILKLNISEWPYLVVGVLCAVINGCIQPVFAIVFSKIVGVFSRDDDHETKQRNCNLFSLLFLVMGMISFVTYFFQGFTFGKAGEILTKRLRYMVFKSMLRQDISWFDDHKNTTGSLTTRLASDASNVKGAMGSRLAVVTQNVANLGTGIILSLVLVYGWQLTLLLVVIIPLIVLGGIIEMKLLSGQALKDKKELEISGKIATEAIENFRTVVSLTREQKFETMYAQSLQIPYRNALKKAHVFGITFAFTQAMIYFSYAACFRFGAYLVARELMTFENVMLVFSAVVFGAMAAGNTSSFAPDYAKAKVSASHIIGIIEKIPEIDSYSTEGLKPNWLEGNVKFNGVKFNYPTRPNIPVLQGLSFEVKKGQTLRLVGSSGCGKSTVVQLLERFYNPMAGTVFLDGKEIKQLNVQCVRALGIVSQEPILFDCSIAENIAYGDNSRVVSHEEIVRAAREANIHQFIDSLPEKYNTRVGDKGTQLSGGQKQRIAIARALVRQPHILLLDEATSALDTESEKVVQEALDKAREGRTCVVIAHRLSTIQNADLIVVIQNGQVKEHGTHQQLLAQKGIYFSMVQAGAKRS

Activity (Bile salt export pump [1]): inducer [Decrease]
Activity [2]: inducer [+]
Activity [3]: inducer [Decrease]
Activity [4]: inducer [Decrease]
Activity [5]: inducer [+]
Activity (Bile salt export pump [6]): inducer [Decrease]
Activity [7]: inducer [+]
Activity [8]: inducer [Decrease]
SMILES: CCCCCCCCCCCCCC(=O)OC(CCCCCCCCCCC)CC(=O)OC1C(NC(=O)CC(CCCCCCCCCCC)OC(=O)CCCCCCCCCCC)C(OC2CC(OC(=O)CC(O)CCCCCCCCCCC)C(NC(=O)CC(O)CCCCCCCCCCC)C(O)O2)OC(CO)C1OP(=O)(O)O (stereo not drawn)

Reference: ChEMBL document CHEMBL2074103, “Up-regulation of the multidrug resistance genes, Mrp1 and Mdr1b, and down-regulation of the organic anion transporter, Mrp2, and the bile salt transporter, Spgp, in endotoxemic rat liver” (Hepatology, 1998)
